Assays:
[1] = target: RAGE V domain (Homo sapiens) (UniProt Q15109); conditions: cited from earlier work
Aβ40 = conditions: cited from earlier work
From the text: Another component colocalized with senile plaques and associated with AD are specific members of the S100 protein family (reviewed in ref. [36]). The S100 family contains over two dozen small (9–13 kDa) multifunctional Ca^2+-binding proteins of the EF-hand superfamily, defined by the presence of the EF-hand motif, which coordinates a calcium ion through a loop located between two α-helices. Some S100 proteins affect cognitive processes, neuronal development and maintenance, APP processing, Aβ levels, the formation of amyloid plaques, post-translational modif ...

HSA–Aβ42 interaction = assay: BLI competition: HSA interaction with monomeric Aβ42 in presence of S100A8/S100A9; assay type: binding, human; conditions: 67 µM HSA with 12 µM S100A8 or 7 µM S100A9; 25 °C, pH 7.4, 2.5 mM CaCl2
Experimental: (§1) Next, 96-well microplates with analyte solutions were kept at 25 °C and shaken at 1000 rpm. The Aβ samples were pretreated with neat TFA, followed by dissolution in DMSO as described in ref. [61, 66]. The pretreated ligand (5 μg/mL Aβ40/Aβ42 in 10 mM sodium acetate, pH 4.5 buffer) was immobilized onto Octet® AR2G biosensor (Sartorius AG, Göttingen, Germany) by amine coupling using EDAC/sulfo-NHS to achieve the loading level of 3.5 nm. The rest of the activated amine groups on the sensor were blocked by 1 M ethanolamine solution. The noncovalently bound ligand molecules were washed off the sensor with a 0.5% SDS water solution, followed by passage of the assay buffer (20 mM Tris-HCl, 140 mM NaCl, 4.9 mM KCl, 2.5 mM CaCl2, 1 mM MgCl2, pH 7.4), resulting in the loading level of 1.5 nm. […] The sensor surface was regenerated by the passage of 0.5% SDS water solution for 30 s.

RAGE V domain = conditions: cited from earlier work
monomeric Aβ40 = assay: Bio-layer interferometry, analyte binding to immobilized monomeric Aβ40; parameters: species or system human; conditions: association; bivalent analyte model; number is ka multiplied by 10^−2; 25 °C, pH 7.4, 2.5 mM CaCl2; mean ± SD, n = 3–4
Experimental: (§2) Next, 96-well microplates with analyte solutions were kept at 25 °C and shaken at 1000 rpm. The Aβ samples were pretreated with neat TFA, followed by dissolution in DMSO as described in ref. [61, 66]. […] The rest of the activated amine groups on the sensor were blocked by 1 M ethanolamine solution. […] The sensor surface was regenerated by the passage of 0.5% SDS water solution for 30 s.
(§3) The direct interaction of S100 proteins with monomeric Aβ was studied by biolayer interferometry in the buffer conditions mimicking the physiological conditions (20 mM Tris-HCl, 140 mM NaCl, 4.9 mM KCl, 2.5 mM CaCl2, 1 mM MgCl2, pH 7.4).
(§4) Since the S100 proteins are predominantly dimeric, their BLI sensograms were described within the bivalent analyte model (1), taking into account that the dimer concentration is half of the monomer concentration.

HSA–Aβ40 interaction = assay: BLI competition: HSA interaction with monomeric Aβ40 in presence of S100A8/S100A9; assay type: binding, human; conditions: 67 µM HSA with 12 µM S100A8 or 7 µM S100A9; 25 °C, pH 7.4, 2.5 mM CaCl2
Experimental: as §1

monomeric Aβ42 = assay: Bio-layer interferometry, analyte binding to immobilized monomeric Aβ42; parameters: species or system human; conditions: for ka × 10^−2: association, bivalent analyte model, number is ka multiplied by 10^−2, 25 °C, pH 7.4, 2.5 mM CaCl2, mean ± SD, n = 3–4
Experimental: as §2, §3, §4

[2] = target: Toll-like receptor 4 (Homo sapiens) (UniProt O00206); conditions: cited from earlier work
Sequence of Toll-like receptor 4 (Homo sapiens) (O00206 24-839): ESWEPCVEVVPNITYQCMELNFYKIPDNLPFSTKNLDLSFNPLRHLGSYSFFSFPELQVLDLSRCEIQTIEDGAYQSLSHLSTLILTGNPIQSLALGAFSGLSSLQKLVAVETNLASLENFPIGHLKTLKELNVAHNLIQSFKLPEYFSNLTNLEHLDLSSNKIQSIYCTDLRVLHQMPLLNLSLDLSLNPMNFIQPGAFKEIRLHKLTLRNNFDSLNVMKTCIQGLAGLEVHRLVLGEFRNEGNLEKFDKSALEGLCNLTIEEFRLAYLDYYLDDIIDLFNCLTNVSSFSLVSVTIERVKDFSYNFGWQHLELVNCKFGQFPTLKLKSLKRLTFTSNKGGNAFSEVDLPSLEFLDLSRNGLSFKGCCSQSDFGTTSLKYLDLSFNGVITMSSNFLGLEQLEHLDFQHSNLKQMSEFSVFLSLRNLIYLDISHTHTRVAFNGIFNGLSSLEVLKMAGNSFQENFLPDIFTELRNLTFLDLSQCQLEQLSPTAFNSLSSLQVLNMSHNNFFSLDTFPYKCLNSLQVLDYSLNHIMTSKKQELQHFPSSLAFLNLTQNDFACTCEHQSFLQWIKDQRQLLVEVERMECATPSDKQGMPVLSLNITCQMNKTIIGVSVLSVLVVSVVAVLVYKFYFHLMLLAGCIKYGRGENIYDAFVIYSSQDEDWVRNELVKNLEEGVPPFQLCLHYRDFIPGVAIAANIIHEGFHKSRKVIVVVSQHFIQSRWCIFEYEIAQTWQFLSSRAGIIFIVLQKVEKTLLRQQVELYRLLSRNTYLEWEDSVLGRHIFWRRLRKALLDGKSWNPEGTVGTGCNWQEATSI

Aβ40 fibrillation = assay: Transmission electron microscopy of Aβ40 fibrils; parameters: species or system human; conditions: 20 μM Aβ40 alone or with 4 μM S100A8 or S100A9, after ThT assay (30 °C, pH 7.4)
Experimental: A 300-mesh copper grid coated with a 0.2% formvar film was placed onto a 10 µL drop of the sample. After allowing the sample (after the ThT fluorescence assay) to adsorb for 10 min, the grid was negatively stained for 2 min using a 1% (w/v) aqueous solution of uranyl acetate. Excess staining solution was removed with filter paper, followed by a 1 min rinse in deionized water. The samples were examined using a JEM-1400Plus (HC) transmission electron microscope (JEOL, Ltd., Tokyo, Japan) operated at 80 keV.

Aβ40/Aβ42 = assay: Chemical cross-linking with glutaraldehyde, SDS-PAGE; assay type: binding, human; conditions: faint band; 0.02% glutaraldehyde, 37 °C, 1 h, 25–75 μM S100A8, 20 μM Aβ40/Aβ42, pH 7.4
Experimental: The protein solution was incubated at 25 °C for 30 min prior to the cross-linking.

Toll-like receptor 4 = conditions: in the presence of Ca^2+ and Zn^2+; cited from earlier work

Sequence of RAGE V domain (Homo sapiens) (Q15109 23-116): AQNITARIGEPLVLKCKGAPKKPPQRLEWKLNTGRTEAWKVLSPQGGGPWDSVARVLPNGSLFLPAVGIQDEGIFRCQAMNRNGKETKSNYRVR
Sequence of S100A9 (P06702 whole entry): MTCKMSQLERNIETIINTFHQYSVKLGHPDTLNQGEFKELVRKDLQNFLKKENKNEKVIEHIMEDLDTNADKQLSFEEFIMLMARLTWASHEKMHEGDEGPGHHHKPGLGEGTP

S100A9 (from UniProt P06702)
Kd [1]: 5500 nM

S100A9: Recombinant human S100A9 prepared in E. coli; pro-inflammatory EF-hand Ca2+-binding protein
direct S100A9–Aβ40 interaction by NMR (Aβ40): direct S100A9–Aβ40 interaction
maximal BLI signal of HSA interaction with Aβ42 (HSA–Aβ42 interaction): marked decline in the maximal BLI signal
Kd (RAGE V domain): 5000 to 6000 nM
ka × 10^−2 (monomeric Aβ40): 2.6 ± 1.0 M^−1s^−1
maximal BLI signal of HSA interaction with Aβ40 (HSA–Aβ40 interaction): marked decline in the maximal BLI signal
ka × 10^−2 (monomeric Aβ42): 4.5 ± 1.3 M^−1s^−1

S100A8 (from UniProt P05109)
Kd [2]: 1000 nM

Aβ40: Recombinant human amyloid-β peptide, 40 residues, prepared in E. coli
fibril morphology by TEM (Aβ40 fibrillation): dense clusters of the intertwined mature fibrils reaching microns in length

S100A8: Recombinant human S100A8 prepared in E. coli; pro-inflammatory EF-hand Ca2+-binding protein
maximal BLI signal of HSA interaction with Aβ42 (HSA–Aβ42 interaction): marked decline in the maximal BLI signal
band of cross-linked complex of S100A8 and Aβ monomers (Aβ40/Aβ42): about 15 kDa
Kd (Toll-like receptor 4): 1000 nM
maximal BLI signal of HSA interaction with Aβ40 (HSA–Aβ40 interaction): marked decline in the maximal BLI signal
accelerated association with Aβ42 versus Aβ40 (monomeric Aβ42; Aβ42 vs Aβ40): 1.5 fold
slower dissociation from Aβ42 versus Aβ40 (monomeric Aβ42; Aβ42 vs Aβ40): 2.4 fold
ka × 10^−2 (monomeric Aβ42): 3.4 ± 0.9 M^−1s^−1

Reference: article PMC11939996 (Biomolecules, 2025)
